Measurements reported in PMC5429621 (Scientific Reports, 2017).

Assays:
[1] = target: T1, hP2X7-2Nβ receptor (Homo sapiens, UniProt Q99572, I21V/M24R/N16P/N25R/Q22R/R20V/S23N/T19I/Y26L); assay: two-electrode voltage clamp, Xenopus oocytes; type: cell-based; conditions: P2X7-2Nβ
T1 construct: expressed in transfected cells; host or cells: Xenopus laevis oocytes (cRNA injected)
T1 sequence (Q99572 1-595 N16P/T19I/R20V/I21V/Q22R/S23N/M24R/N25R/Y26L): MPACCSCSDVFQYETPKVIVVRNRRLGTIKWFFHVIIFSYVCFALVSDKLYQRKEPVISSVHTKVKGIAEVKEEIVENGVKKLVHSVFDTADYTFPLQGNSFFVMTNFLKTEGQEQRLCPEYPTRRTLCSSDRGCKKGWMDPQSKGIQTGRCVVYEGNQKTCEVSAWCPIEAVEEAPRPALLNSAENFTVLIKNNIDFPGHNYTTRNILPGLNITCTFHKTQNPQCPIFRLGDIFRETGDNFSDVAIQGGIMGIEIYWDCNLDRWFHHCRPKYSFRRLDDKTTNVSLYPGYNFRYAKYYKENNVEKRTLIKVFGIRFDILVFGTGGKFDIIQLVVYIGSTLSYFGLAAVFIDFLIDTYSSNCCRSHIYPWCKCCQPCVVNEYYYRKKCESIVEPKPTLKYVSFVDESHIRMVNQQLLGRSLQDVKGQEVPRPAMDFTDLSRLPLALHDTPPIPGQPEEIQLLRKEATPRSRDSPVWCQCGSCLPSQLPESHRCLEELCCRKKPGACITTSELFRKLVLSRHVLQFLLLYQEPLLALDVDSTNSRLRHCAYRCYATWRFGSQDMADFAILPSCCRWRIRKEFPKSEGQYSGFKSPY
Protocol: (§1) P2XR constructs were transcribed to produce sense-strand cRNA (mMessage mMachine, Ambion, Austin, TX). Manually defoliculated stage V Xenopus laevis oocytes were injected with 50 nl (50 ng) of cRNA using an Inject + Matic microinjector (J.A. Gaby, InjectMatic, Geneva, Switzerland) and stored at 16 °C in ND96 buffer (in mM, NaCl 96, KCl 2, CaCl2 1.8, MgCl2 1, sodium pyruvate 5, HEPES 5 (pH 7.6) supplemented with 50 µg/ml gentamycin and 50 µg/ml tetracycline). For electrophysiological recordings (3–7 days post-injection) oocytes were bathed in divalent free ND96 buffer (in mM, NaCl 96, KCl 2, sodium pyruvate 5, HEPES 5 and 0.1 flufenamic acid, pH 7.6).
ATP (sodium salt, Sigma) was applied via a U-tube perfusion system for 3 s at 3–5 minute intervals to allow reproducible responses to be recorded. […] To standardize for any change in ATP sensitivity at mutant receptors antagonists were co-applied with an EC90 concentration of ATP.
Concentration response curves were normalized to the maximal response and fitted with the Hill equation (variable slope) with GraphPad Prism 6 (Graphpad software, San Diego, CA). […] Individual concentration response curves were generated for individual experiments and statistical analysis was carried out on the data generated. In the figures the inhibition curves are fitted to the mean normalized data. Any significant differences were calculated by one-way analysis of variance, followed by Bonferroni’s test (using GraphPad Prism 6). Data are shown as mean ± SEM.

[2] = target: T2, hP2X1R (Homo sapiens, UniProt P51575); assay: two-electrode voltage clamp, Xenopus oocytes; type: cell-based
T2 construct: expressed in transfected cells; host or cells: Xenopus laevis oocytes (cRNA injected)
T2 sequence (P51575 1-399): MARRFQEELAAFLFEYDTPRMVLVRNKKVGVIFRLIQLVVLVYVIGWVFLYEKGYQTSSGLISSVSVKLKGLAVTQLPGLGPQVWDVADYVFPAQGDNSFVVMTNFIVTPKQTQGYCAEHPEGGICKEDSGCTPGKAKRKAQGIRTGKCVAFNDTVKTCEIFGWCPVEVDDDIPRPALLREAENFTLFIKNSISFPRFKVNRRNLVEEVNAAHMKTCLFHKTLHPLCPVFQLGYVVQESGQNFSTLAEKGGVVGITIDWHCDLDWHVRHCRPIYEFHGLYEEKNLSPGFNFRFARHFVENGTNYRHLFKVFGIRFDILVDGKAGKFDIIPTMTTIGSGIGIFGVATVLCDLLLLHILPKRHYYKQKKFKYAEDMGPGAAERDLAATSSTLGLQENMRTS
Excerpt: The hP2X1R was a gift from Dr Lin-Hua Jiang (University of Leeds, UK) and the hP2X1R cDNA has been described previously. Chimeras were generated by megaprimer-mediated domain swapping. In addition to chimeras, point mutations, deletions and insertions were made using the QuikChange (Stratagene) or Q5 (New England Bioscience) mutagenesis kits. The production of the correct mutations and absence of coding errors was verified by DNA sequencing (Automated ABI Sequencing Service, University of Leicester, UK).
as §1
Two-electrode voltage clamp recordings were carried out using a GeneClamp 500B amplifier with a Digidata 1322 A analog to digital convertor and pCLAMP 8.2 acquisition software (Molecular Devices, Menolo Park, CA) at a holding potential of −60 mV. ATP (sodium salt, Sigma) was applied via a U-tube perfusion system for 3 s at 3–5 minute intervals to allow reproducible responses to be recorded. For determination of antagonist sensitivity AZ10606120 (Tocris) was bath perfused as well as co-applied with ATP through the U-tube. […]
Concentration response curves were normalized to the maximal response and fitted with the Hill equation (variable slope) with GraphPad Prism 6 (Graphpad software, San Diego, CA). […] Any significant differences were calculated by one-way analysis of variance, followed by Bonferroni’s test (using GraphPad Prism 6). […]

| SMILES | Peak amplitude ([1]; maximal ATP) [μA] | Peak amplitude ([2]; P2X1, maximal ATP) [μA] | Hill slope of AZ10606120 inhibition ([1]; EC90 ATP) | % Inhibition with 30 nm AZ10606120 ([1]; response to EC90 ATP) | AZ10606120 pIC50 ([2]; P2X1, EC90 ATP) | effect of AZ10606120 at P2X1R ([2]; at 10 μM) |
| --- | --- | --- | --- | --- | --- | --- |
| Nc1ncnc2c1ncn2[C@@H]1O[C@H](COP(=O)(O)OP(=O)(O)OP(=O)(O)O)[C@@H](O)[C@H]1O [ATP] | 2.69 ± 0.19 | 7.90 ± 1.08 |  |  |  |  |
| Cl.Cl.O=C(CC12CC3CC(CC(C3)C1)C2)Nc1cccc2nc(NCCNCCO)ccc12 [AZ10606120, N-[2-[[2-[(2-Hydroxyethyl)amino]ethyl]amino]-5-quinolinyl]-2-tricyclo[3.3.1.13,7]dec-1-ylacetamide dihydrochloride] |  |  | 1.7 ± 0.24 | ~ 70% | insensitive | ineffective |
